Laboratory results as given in patent US20240197729A1, “ALK-5 Inhibitors and Uses Thereof” (Sumitomo Pharma Oncology, Inc., priority 2021, published 2024).

Experiments:
A549 lung fibroblasts = test: Epithelial to mesenchymal transition gene expression in A549; assay type: cell-based; details: 5 ng/ml TGF-beta1, 48 h, up to 5 micromolar
Experimental: To evaluate whether Compounds 01 and 04 could inhibit epithelial to mesenchymal transition (EMT), an in vitro model using A549 lung fibroblasts was utilized. A549 cells were purchased from ATCC (CCL-185), and grown in RPMI media supplemented with 10 percent fetal bovine serum (FBS). On the day of the experiment, ten thousand A549 cells were seeded in eighty microliters total volume into a flat, tissue culture coated, ninety-six-well plate. Drugs, including positive control compounds vactosertib, PF-06952229 and LY3200882, were added in an eight point, one to three dilution series with the highest concentration of each drug being five micromolar, bringing the total volume of each well to ninety microliters. DMSO, which served to dissolve the 10 millimolar stock solution of each drug, was normalized across all wells After one hour of drug pretreatment, recombinant human TGF-beta1 was added to a final concentration of five nanograms per milliliter, bringing the volume to one hundred microliters. Recombinant human TGF-beta 1 was purchased from R&D Systems (7754-BH-005) and its stock solution was prepared according to manufacturer's instructions and diluted in RPMI media supplemented with 10% FBS. The ninety-six well plate with one hundred microliter volume was incubated at 37° C. at 5% CO2 for forty-eight hours. At the end of the incubation period, gene expression levels of various EMT markers were assessed using a custom designed QuantiGene Plex Gene Expression Assay. The genes chosen were CDH1 (E-cadherin), CDH2 (N-Cadherin), SNAI1 (Snail), SNAI2 (Slug), VIM (Vimentin), SPARC, GALNT6, CTNNB1 (beta-catenin), TGFB1, and MAML3.
Briefly, cell lysate was prepared using the QuantiGene Sample Processing Kit —Cultured Cells (QS0100) in the ninety-six well plate. Cell lysates were then subjected to bead hybridization, multiple probe hybridization steps and SAPE labeling following manufacturer's instruction. The plate was read on a Luminex MAGPIX instrument.

[1] = system: bleomycin-induced lung fibrosis; test: Bleomycin-induced lung fibrosis study; assay type: in vivo, mice; details: for formation of fibrosis, Masson's trichrome stained lung tissue: 25 or 50 mg/kg BID, responding animals; for Ashcroft score, group comparison to the bleomycin/vehicle group: all doses, five animals per group
Experimental: The most common animal model of pulmonary fibrosis is the bleomycin-induced lung fibrosis model in rodents. This model is commonly used to investigate biology and potential therapies for fibrotic diseases affecting the lung, such as idiopathic pulmonary fibrosis (IPF). Bleomycin, a cytotoxic drug, is administered to mice or rats and causes direct cell injury triggered by DNA strand breaks, which leads to an overproduction of reactive oxygen species causing inflammation, pulmonary toxicity, activation of fibroblasts and subsequent fibrosis. Fibrosis is hallmarked by aberrant activation of lung epithelial cells and accumulation of fibroblasts and myofibroblasts with excessive production of extracellular matrix such as collagen. To test the ability of Compound 01 and Compound 04 to reduce fibrosis in vivo, a bleomycin induced lung fibrosis model in mice was utilized and endpoints such as lung hydroxyproline levels, a surrogate marker of collagen and fibrosis, and histological scoring of fibrosis were performed.
For this study, male C57BL/6J mice approximately 6 to 7 weeks old (purchased from Charles River) were weighed on the day prior to study day 0 to establish a baseline. All study arms contained sixteen total animals, except the sham/vehicle group, which contained 10 animals. All animals, except the sham/vehicle group were dosed intranasally with 4 international units per kilogram bleomycin in the morning of day 1 of the study. Bleomycin was prepared in a solution of 0.9 percent sodium chloride. All drugs were prepared in 10 percent Tween 20. Starting in the evening on day 1 of the study, one dose of Compound 04 or Compound 01 was given at either twenty-five or fifty milligrams per kilogram per oral gavage. For all subsequent days of the twenty-one day study, animals were dosed twice a day per oral gavage with either twenty-five or fifty milligram per kilogram of Compound 04 or Compound 01. At day twenty-one, the lungs were harvested and either snap frozen or fixed in paraformaldehyde. The left lobe of the lungs was subjected to hydroxyproline quantification, which was used as a biomarker of fibrosis and total collagen. The remaining lung tissue was fixed in paraformaldehyde to be processed for histological examination following hematoxylin-eosin (H&E) and Masson trichrome staining. […]. Clinical observations were recorded daily.

[2] = system: TGF-β1-mediated αSMA expression; details: human, 73 h
Experimental: To test the ability of selected compounds to inhibit the TGF-β1-dependent transition of fibroblasts to myofibroblasts in a relevant disease model of IPF, an FMT assay was performed using lung fibroblasts from IPF patients. In this assay, the transition of fibroblasts to myofibroblasts is determined by the expression of the biomarker alpha smooth muscle actin (α-SMA).
Primary human bronchial fibroblasts derived from IPF patients were seeded on day zero and the media was refreshed on day two. On day five, selected compounds or controls were added at an eight-point concentration response curve starting at 10 μM (semi-log dilutions). Each drug concentration condition was evaluated in biological duplicates. […] Seventy-two hours following TGF-beta addition, the cells were fixed with formaldehyde. High content imaging evaluating cell number using the nuclear stain DAPI as well as the expression of a-SMA was performed. The following controls were run alongside the selected compounds: vactosertib and the approved IPF drug nintedanib (at an eight-point, semi-log curve with 10 μM starting concentration). As a negative control 0.1% DMSO was also used, matching the DMSO concentration in treated wells. The following calculations were used to determine cell number as well as percent inhibition (PIN) of alpha SMA expression:
• Segmentation and quantification of αSMA immunoreactivity by an HCA algorithm, with density×area (D×A) output • Data normalization of raw αSMA (D×A) to percentage inhibition (PIN) values, on a plate-to-plate basis
• DAPI fluorescence applied for HCA-based quantification of the number of imaged cells, on a plate-to-plate basis
[formula] • μn is the average numbers of nuclei of the vehicle control (TGF-β1+0.1% DMSO) • Xi is the compound number of nuclei

Structure (SMILES)	CDH1 (E-Cadherin) gene expression (A549 lung fibroblasts)	expression of the nine genes induced with EMT (CDH2, SNAI1, SNAI2, VIM, SPARC, GALNT6, CTNNB1, TGFB1, MAML3) (A549 lung fibroblasts)	formation of fibrosis, Masson's trichrome stained lung tissue [1]	Ashcroft score, group comparison to the bleomycin/vehicle group [1]	Potentially toxic concentration [2]
Cc1nn(CC(F)(F)F)cc1Nc1cc(Nc2cnnc3c(C)cccc23)ccn1 [Compound 01, N2-[3-methyl-1-(2,2,2-trifluoroethyl)-1H-pyrazol-4-yl]-N4-(8-methylcinnolin-4-yl)pyridine-2,4-diamine]	inhibition of downregulation of CDH1 (E-Cadherin)	inhibition of induction of the nine genes that are induced with EMT	reduced the formation of fibrosis	not statistically significant	
Cc1cccc(-c2[nH]c(CNc3ccccc3F)nc2-c2ccc3ncnn3c2)n1 [Vactosertib, vactosertib, reference compound]					5.0
Clc1cccc2c(Nc3ccnc(Nc4cccc(N5CCOCC5)c4)c3)cnnc12 [Compound 04, N4-(8-chlorocinnolin-4-yl)-N2-[3-(morpholin-4-yl)phenyl]pyridine-2,4-diamine]	inhibition of downregulation of CDH1 (E-Cadherin)	inhibition of induction of the nine genes that are induced with EMT	reduced the formation of fibrosis	not statistically significant	
